Laboratory results: ChEMBL document CHEMBL5338751, “Discovery of the First-in-Class Intestinal Restricted FXR and FABP1 Dual Modulator ZLY28 for the Treatment of Nonalcoholic Fatty Liver Disease” (J Med Chem, 2023)
Calls of active or inactive are those of the source. No cut-off for these calls is given here.

Legend:
[1] = biological target: Progesterone receptor (Homo sapiens, UniProt P06401); experiment: Activation of Gal-DBD and NHRLBD fused PR (unknown origin) transfected in African green monkey CV-1 cells by luciferase reporter assay; type: cell-based
[2] = Drug concentration in C57BL/6 mouse liver at 20 mg/kg, po administered for 5 days and measured after 1 hr post final dose by LC-MS analysis; type: ADME, organism-based; conditions: time 5 day, read-out: Ct
[3] = Drug concentration in C57BL/6 mouse ileum at 20 mg/kg, po administered for 5 days and measured after 1 hr post final dose by LC-MS analysis; type: ADME, organism-based; conditions: time 5 day, read-out: Ct
[4] = biological target: Fatty acid-binding protein, adipocyte (Homo sapiens, UniProt P15090); experiment: Displacement of 8-anilino-1-naphthalene-sulfonic acid from FABP4 (unknown origin) incubated for 3 mins by fluorescence based assay
Sequence of Fatty acid-binding protein, adipocyte (P15090 whole entry, the tested form may be a part): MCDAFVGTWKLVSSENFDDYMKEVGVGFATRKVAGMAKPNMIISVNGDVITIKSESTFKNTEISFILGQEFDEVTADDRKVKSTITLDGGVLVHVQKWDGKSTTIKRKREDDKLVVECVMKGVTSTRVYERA

[5] = biological target: Retinoic acid receptor alpha (Homo sapiens, UniProt P10276); experiment: Activation of Gal-DBD and NHRLBD fused RARalpha (unknown origin) transfected in African green monkey CV-1 cells by luciferase reporter assay; type: cell-based
Sequence of Retinoic acid receptor alpha (P10276 whole entry, the tested form may be a part): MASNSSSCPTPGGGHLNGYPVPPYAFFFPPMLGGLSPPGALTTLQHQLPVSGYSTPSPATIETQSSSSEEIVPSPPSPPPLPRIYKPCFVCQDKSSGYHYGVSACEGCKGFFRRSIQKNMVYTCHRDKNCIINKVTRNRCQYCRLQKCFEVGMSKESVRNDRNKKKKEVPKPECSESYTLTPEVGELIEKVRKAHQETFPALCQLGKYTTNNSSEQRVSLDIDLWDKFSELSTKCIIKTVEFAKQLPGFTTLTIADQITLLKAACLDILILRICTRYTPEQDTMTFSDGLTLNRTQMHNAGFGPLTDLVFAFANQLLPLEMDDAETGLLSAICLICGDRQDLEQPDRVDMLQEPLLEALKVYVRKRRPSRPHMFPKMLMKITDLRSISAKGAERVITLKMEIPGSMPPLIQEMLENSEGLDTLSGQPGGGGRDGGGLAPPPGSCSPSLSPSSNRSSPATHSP

[6] = biological target: Retinoic acid receptor gamma (Homo sapiens, UniProt P13631); experiment: Activation of Gal-DBD and NHRLBD fused RARgamma (unknown origin) transfected in African green monkey CV-1 cells by luciferase reporter assay; type: cell-based
Sequence of Retinoic acid receptor gamma (P13631 whole entry, the tested form may be a part): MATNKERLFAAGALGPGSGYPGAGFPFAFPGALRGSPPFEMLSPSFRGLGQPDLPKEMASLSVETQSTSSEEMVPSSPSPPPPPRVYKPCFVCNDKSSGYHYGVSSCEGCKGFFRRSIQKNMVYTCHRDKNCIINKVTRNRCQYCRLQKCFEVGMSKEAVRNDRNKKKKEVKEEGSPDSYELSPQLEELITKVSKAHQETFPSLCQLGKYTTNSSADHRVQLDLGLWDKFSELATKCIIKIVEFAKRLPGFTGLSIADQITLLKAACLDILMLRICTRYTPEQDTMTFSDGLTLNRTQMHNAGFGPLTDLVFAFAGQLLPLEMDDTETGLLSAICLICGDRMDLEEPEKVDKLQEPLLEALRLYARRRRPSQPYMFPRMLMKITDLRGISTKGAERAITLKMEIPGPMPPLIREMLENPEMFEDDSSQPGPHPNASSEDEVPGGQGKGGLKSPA

[7] = Metabolic stability in Beagle dog liver microsomes assessed as parent compound remaining incubated for 1 hr by LC-MS analysis; type: ADME, Canis lupus familiaris, Microsome; conditions: read-out: Stability
[8] = Metabolic stability in human liver microsomes assessed as parent compound remaining incubated for 1 hr by LC-MS analysis; type: ADME, Microsome; conditions: read-out: Stability
[9] = biological target: Oxysterols receptor LXR-alpha (Homo sapiens, UniProt Q13133); experiment: Inhibition of Gal-DBD and NHRLBD fused LXRalpha (unknown origin) transfected in African green monkey CV-1 cells by luciferase assay; type: cell-based
Sequence of Oxysterols receptor LXR-alpha (Q13133 whole entry, the tested form may be a part): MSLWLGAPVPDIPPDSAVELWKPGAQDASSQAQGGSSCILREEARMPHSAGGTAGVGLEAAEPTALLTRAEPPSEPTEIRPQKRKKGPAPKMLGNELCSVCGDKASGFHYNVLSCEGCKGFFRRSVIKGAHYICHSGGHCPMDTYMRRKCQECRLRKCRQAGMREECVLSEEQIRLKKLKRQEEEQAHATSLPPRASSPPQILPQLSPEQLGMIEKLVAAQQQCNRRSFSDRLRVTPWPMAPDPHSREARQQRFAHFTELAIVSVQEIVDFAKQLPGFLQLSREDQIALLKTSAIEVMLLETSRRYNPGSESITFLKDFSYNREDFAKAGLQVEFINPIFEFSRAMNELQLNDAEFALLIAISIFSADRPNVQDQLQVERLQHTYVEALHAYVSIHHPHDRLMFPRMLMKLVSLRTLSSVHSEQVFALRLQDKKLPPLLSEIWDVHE

[10] = biological target: T1, Fatty acid-binding protein, liver (Homo sapiens, UniProt P07148); experiment: Displacement of 8-anilino-1-naphthalene-sulfonic acid from FABP1 (unknown origin) incubated for 3 mins by fluorescence based assay
T1 sequence (P07148 whole entry): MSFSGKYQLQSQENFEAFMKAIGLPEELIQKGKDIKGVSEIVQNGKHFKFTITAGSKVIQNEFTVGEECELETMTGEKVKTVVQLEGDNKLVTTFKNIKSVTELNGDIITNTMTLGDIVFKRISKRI

[11] = Drug concentration in C57BL/6 mouse plasma at 20 mg/kg, po administered for 5 days and measured after 1 hr post final dose by LC-MS analysis; type: ADME, organism-based; conditions: time 5 day
[12] = biological target: Androgen receptor (Homo sapiens, UniProt P10275); experiment: Activation of Gal-DBD and NHRLBD fused AR (unknown origin) transfected in African green monkey CV-1 cells by luciferase reporter assay; type: cell-based
Sequence of Androgen receptor (P10275 whole entry, the tested form may be a part): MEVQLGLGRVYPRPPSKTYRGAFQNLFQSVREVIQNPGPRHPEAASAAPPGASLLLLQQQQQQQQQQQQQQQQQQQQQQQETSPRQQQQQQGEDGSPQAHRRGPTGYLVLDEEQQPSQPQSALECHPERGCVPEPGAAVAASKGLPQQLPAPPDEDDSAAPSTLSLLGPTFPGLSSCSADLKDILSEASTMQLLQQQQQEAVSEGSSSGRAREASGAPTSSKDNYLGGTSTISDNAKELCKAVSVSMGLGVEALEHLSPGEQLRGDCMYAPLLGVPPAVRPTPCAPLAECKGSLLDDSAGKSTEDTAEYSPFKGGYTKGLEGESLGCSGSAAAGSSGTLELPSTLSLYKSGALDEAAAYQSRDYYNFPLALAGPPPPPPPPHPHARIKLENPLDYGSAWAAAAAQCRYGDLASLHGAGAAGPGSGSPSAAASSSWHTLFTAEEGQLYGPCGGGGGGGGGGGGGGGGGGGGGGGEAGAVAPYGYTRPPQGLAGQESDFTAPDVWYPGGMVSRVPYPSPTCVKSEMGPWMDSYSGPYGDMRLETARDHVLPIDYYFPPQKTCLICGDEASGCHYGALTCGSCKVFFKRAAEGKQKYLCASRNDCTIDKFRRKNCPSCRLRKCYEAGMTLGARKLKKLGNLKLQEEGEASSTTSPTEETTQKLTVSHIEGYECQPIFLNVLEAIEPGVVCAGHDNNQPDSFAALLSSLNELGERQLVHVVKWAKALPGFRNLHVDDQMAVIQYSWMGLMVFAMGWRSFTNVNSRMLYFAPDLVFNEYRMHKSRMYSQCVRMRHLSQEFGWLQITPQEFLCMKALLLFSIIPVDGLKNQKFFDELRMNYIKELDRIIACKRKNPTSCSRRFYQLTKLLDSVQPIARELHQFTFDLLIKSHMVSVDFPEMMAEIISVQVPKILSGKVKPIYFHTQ

[13] = biological target: Mineralocorticoid receptor (Homo sapiens, UniProt P08235); experiment: Activation of Gal-DBD and NHRLBD fused MR (unknown origin) transfected in African green monkey CV-1 cells by luciferase reporter assay; type: cell-based
Sequence of Mineralocorticoid receptor (P08235 whole entry, the tested form may be a part): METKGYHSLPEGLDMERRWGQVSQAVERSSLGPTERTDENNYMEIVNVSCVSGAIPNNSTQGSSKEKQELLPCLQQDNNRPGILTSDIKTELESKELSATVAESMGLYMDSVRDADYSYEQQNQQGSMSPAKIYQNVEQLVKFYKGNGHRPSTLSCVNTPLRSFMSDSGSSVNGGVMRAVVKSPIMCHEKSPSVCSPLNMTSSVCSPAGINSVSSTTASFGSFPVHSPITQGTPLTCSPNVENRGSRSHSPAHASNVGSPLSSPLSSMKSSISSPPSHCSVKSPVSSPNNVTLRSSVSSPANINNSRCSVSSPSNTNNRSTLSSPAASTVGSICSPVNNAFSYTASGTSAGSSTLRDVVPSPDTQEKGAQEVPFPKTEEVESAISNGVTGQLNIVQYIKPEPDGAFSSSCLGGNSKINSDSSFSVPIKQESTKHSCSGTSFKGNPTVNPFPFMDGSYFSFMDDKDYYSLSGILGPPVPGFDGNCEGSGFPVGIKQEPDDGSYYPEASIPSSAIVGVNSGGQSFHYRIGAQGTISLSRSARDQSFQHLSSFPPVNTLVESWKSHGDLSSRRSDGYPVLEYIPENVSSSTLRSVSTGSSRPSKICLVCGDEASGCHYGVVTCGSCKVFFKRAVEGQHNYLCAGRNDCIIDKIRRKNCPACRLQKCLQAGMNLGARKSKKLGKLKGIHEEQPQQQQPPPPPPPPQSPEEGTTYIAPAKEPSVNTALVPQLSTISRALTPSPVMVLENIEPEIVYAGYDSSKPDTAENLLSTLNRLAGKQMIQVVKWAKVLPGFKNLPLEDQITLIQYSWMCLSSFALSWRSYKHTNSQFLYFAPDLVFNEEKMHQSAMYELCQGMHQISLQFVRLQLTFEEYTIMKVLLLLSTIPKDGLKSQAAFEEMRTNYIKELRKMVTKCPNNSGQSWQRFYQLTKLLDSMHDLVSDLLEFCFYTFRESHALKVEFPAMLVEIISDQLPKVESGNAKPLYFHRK

[14] = biological target: Fatty acid-binding protein, heart (Homo sapiens, UniProt P05413); experiment: Displacement of 8-anilino-1-naphthalene-sulfonic acid from FABP3 (unknown origin) incubated for 3 mins by fluorescence based assay
Sequence of Fatty acid-binding protein, heart (P05413 whole entry): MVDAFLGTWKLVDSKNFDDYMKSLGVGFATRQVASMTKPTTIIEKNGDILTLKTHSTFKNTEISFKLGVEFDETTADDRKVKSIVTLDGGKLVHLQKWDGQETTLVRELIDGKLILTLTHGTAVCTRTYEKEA

[15] = biological target: G-protein coupled bile acid receptor 1 (Homo sapiens, UniProt Q8TDU6); experiment: Activation of TGR5 (unknown origin) transfected in human NCI-H716 cells assessed as increase in cAMP production incubated for 24 hrs by HTR-FRET assay; type: functional, cell-based
Sequence of G-protein coupled bile acid receptor 1 (Q8TDU6 whole entry): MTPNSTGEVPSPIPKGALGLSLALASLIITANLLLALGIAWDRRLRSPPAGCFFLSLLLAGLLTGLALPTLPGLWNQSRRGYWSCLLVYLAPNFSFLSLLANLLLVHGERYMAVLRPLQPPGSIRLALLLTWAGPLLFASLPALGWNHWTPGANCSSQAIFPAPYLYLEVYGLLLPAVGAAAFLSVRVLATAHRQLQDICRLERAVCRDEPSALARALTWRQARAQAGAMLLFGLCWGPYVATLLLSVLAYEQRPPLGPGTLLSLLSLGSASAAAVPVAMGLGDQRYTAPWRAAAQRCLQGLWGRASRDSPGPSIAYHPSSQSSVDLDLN

[16] = Metabolic stability in Sprague-Dawley rat liver microsomes assessed as parent compound remaining incubated for 1 hr by LC-MS analysis; type: ADME, Microsome; conditions: read-out: Stability
[17] = biological target: Oxysterols receptor LXR-beta (Homo sapiens, UniProt P55055); experiment: Inhibition of Gal-DBD and NHRLBD fused LXRbeta (unknown origin) transfected in African green monkey CV-1 cells by luciferase assay; type: cell-based
Sequence of Oxysterols receptor LXR-beta (P55055 whole entry, the tested form may be a part): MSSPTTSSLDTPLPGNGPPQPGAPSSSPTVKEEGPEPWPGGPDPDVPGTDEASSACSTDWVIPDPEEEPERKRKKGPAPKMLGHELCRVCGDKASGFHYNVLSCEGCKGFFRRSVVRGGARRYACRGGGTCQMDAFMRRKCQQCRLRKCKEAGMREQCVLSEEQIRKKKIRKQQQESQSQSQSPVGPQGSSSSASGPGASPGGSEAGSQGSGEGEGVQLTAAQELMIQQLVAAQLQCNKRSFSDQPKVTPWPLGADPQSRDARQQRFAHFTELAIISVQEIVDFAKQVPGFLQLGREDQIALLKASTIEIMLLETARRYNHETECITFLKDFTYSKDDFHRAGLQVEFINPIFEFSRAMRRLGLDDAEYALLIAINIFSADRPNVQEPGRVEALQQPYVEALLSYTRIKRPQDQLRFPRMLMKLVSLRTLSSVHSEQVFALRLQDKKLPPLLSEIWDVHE

[18] = Metabolic stability in mouse liver microsomes assessed as parent compound remaining incubated for 1 hr by LC-MS analysis; type: ADME, Microsome; conditions: read-out: Stability
[19] = Metabolic stability in rhesus monkey liver microsomes assessed as parent compound remaining incubated for 1 hr by LC-MS analysis; type: ADME, Macaca mulatta, Microsome; conditions: read-out: Stability
[20] = biological target: T2, Fatty acid-binding protein, liver (Homo sapiens) (UniProt P07148); experiment: Displacement of 8-anilino-1-naphthalene-sulfonic acid from FABP1 (unknown origin) at 10 uM incubated for 3 mins by fluorescence based assay relative to control
T2 sequence (whole entry): T1 sequence (P07148 whole entry)

[21] = biological target: T3, Bile acid receptor (Homo sapiens, UniProt Q96RI1); experiment: Agonist activity at FXR (unknown origin) expressed in human HepG2 cells co-transfected with human RXR assessed as luciferase activity incubated for 24 hrs by cell-based luciferase assay
T3 sequence (Q96RI1 whole entry): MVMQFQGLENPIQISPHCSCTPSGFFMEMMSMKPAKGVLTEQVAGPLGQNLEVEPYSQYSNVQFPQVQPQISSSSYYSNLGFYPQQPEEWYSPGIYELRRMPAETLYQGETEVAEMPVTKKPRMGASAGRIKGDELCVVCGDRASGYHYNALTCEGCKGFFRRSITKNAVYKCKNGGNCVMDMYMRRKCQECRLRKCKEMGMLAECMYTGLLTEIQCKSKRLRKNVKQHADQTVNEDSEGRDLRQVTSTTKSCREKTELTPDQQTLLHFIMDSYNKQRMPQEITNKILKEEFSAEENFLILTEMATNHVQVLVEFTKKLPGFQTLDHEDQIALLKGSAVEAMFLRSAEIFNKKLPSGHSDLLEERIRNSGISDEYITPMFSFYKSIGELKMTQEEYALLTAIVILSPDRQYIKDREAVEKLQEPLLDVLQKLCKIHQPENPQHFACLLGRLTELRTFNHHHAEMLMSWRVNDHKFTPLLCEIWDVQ

[22] = biological target: T3, Bile acid receptor; experiment: Agonist activity at FXR-LBD (unknown origin) using fluorescein-coactivator peptide incubated for 3 hrs by TR-FRET assay
[23] = test system: Mus musculus; experiment: Anti-NASH activity in western diet and CCl4-induced nonalcoholic steatohepatitis C57BL/6 mouse assessed as alleviation of lobular inflammation at 20 mg/kg, po administered for 12 weeks starting from week 8 and change in dose for every 5 days; type: functional, organism-based; conditions: time 4.0 weeks
[24] = test system: Mus musculus; experiment: Anti-NASH activity in western diet and CCl4-induced nonalcoholic steatohepatitis C57BL/6 mouse assessed as alleviation of hepatic steatosis at 20 mg/kg, po administered for 12 weeks starting from week 8 and change in dose for every 5 days; type: functional, organism-based; conditions: time 4.0 weeks
[25] = biological target: T4, Peroxisome proliferator-activated receptor alpha (Homo sapiens, UniProt Q07869); experiment: Inhibition of pBIND-PPARalpha (unknown origin) transfected in HepG2 cells incubated for 18 hrs in presence of […] by dual luciferase reporter assay; type: cell-based
T4 sequence (Q07869 whole entry): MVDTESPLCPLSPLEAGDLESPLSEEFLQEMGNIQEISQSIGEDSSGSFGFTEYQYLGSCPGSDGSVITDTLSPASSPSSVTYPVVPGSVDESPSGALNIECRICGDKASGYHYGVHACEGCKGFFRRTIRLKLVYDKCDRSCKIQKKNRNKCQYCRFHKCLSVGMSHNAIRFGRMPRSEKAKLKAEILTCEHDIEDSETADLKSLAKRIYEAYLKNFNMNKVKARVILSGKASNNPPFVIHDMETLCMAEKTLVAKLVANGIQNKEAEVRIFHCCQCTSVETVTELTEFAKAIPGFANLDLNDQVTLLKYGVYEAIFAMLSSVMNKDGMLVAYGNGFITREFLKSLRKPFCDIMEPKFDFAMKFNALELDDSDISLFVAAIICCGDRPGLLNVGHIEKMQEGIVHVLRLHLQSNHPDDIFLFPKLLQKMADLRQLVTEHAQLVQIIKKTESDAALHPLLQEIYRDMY

[26] = biological target: T5, Peroxisome proliferator-activated receptor gamma (Homo sapiens, UniProt P37231); experiment: Inhibition of PPARgamma (unknown origin) transfected in HEK293 cells incubated for 18 hrs in presence of rosiglitazone by dual luciferase reporter assay; type: cell-based
T5 sequence (P37231 whole entry): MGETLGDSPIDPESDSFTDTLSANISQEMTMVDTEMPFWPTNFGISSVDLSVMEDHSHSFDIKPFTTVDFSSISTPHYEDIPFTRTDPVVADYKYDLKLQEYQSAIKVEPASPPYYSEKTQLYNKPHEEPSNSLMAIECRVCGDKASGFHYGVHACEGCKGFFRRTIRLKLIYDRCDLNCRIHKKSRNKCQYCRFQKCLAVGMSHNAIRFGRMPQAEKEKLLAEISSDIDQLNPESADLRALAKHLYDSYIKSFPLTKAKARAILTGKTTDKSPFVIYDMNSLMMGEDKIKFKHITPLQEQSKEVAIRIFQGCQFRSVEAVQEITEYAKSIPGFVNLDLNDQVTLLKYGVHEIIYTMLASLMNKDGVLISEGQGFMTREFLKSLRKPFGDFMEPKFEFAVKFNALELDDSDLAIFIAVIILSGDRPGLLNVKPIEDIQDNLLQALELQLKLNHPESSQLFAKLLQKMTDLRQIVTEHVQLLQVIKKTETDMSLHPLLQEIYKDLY

[27] = Inhibition of PPARbeta/delta (unknown origin) transfected in HepG2 cells incubated for 18 hrs in presence of GW0742 by dual luciferase reporter assay; conditions: Homo sapiens, HepG2, 18 h
[28] = biological target: Thyroid hormone receptor beta (Homo sapiens, UniProt P10828); experiment: Activation of pGAL4 fused THRbeta LBD (unknown origin) transfected in HEK293 cells cotransfected with pG5-Luc and pRL-TK incubated for 24 hrs by Renilla/Firefly based dual-glo luciferase assay; type: cell-based
Sequence of Thyroid hormone receptor beta (P10828 whole entry, the tested form may be a part): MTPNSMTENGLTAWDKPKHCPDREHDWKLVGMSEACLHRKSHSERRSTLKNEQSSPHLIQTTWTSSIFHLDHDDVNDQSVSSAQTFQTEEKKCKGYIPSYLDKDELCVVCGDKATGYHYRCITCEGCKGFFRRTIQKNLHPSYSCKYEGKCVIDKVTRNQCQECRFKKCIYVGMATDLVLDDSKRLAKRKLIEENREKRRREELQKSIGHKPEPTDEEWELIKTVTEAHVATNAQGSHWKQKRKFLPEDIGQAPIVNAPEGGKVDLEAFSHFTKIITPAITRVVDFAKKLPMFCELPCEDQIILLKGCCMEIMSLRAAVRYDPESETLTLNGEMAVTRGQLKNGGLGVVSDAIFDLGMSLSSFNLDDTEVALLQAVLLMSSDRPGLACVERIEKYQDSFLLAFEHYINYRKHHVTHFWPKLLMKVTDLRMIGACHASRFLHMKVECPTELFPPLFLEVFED

Structure (SMILES): O=C(O)Cc1ccc(-c2ccc(OCc3c(-c4c(Cl)cccc4Cl)noc3C3CC3)cc2)cc1
- EC50 [1]: > 10 µM
- concentration at 120 h [2]: 718 ng/g
- concentration at 120 h [3]: 158 ng/g
- IC50 [4]: 5.6 µM
- EC50 [5]: > 10 µM
- EC50 [6]: > 10 µM
- remaining at 1 h [7]: 69.1%
- remaining at 1 h [8]: 83.6%
- EC50 [9]: > 10 µM
- IC50 [10]: 2.9 µM
- concentration at 120 h [11]: 2530 ng/mL
- EC50 [12]: > 10 µM
- EC50 [13]: > 10 µM
- IC50 [14]: > 30 µM
- EC50 [15]: > 10 µM
- remaining at 1 h [16]: 86.8%
- EC50 [17]: > 10 µM
- remaining at 1 h [18]: 74.3%
- remaining at 1 h [19]: 64.5%

Structure (SMILES): O=C(O)COc1cccc(-c2ccc(OCc3c(-c4c(Cl)cccc4Cl)noc3C3CC3)cc2)c1
- inhibition [20]: 67.1%
- EC50 [21]: 1.85 µM
- IC50 [10]: 3.8 µM
- EC50 [22]: 0.26 µM

Structure (SMILES): CC[C@H]1[C@@H](O)[C@@H]2[C@H](CC[C@]3(C)[C@@H]([C@H](C)CCC(=O)O)CC[C@@H]23)[C@@]2(C)CC[C@@H](O)C[C@@H]12
- Activity [23]: Active
- Activity [24]: Active

Structure (SMILES): CC(C)c1onc(-c2c(Cl)cccc2Cl)c1COc1ccc(-c2cccc(C3(C(=O)O)CC3)c2)cc1
- remaining at 1 h [16]: 41.1%
- remaining at 1 h [18]: 35.6%

Structure (SMILES): CC(C)c1onc(-c2c(Cl)cccc2Cl)c1COc1ccc(/C=C/c2cccc(C(=O)O)c2)c(Cl)c1
- inhibition [20]: 35.2%
- IC50 [10]: 15.3 µM

Structure (SMILES): O=C(O)Cc1ccc(-c2cccc(OCc3c(-c4c(Cl)cccc4Cl)noc3C3CC3)c2)cc1
- inhibition [20]: 9.5%
- EC50 [22]: > 10 µM

Structure (SMILES): O=C(O)C1(c2cccc(-c3cccc(OCc4c(-c5c(Cl)cccc5Cl)noc4C4CC4)c3)c2)CC1
- EC50 [22]: > 10 µM

Structure (SMILES): CCc1c(-c2ccccc2)c(-c2ccccc2)nn1-c1ccccc1-c1cccc(OCC(=O)O)c1
- inhibition [20]: 72.7%
- EC50 [21]: > 10 µM
- IC50 [25]: > 10 µM
- EC50 [9]: > 10 µM
- IC50 [26]: > 10 µM
- IC50 [10]: 4 µM
- EC50 [22]: > 10 µM
- IC50 [27]: > 10 µM
- EC50 [28]: > 10 µM
- EC50 [17]: > 10 µM

Structure (SMILES): O=C(O)CCc1ccc(-c2ccc(OCc3c(-c4c(Cl)cccc4Cl)noc3C3CC3)cc2)cc1
- IC50 [10]: 1.4 µM
- remaining at 1 h [16]: 26.1%
- remaining at 1 h [18]: 19.7%

Structure (SMILES): O=C(O)CCc1cccc(-c2ccc(OCc3c(-c4c(Cl)cccc4Cl)noc3C3CC3)cc2)c1
- IC50 [10]: 3.3 µM

Structure (SMILES): O=C(O)Cc1ccc(-c2ccc(OCc3c(-c4c(Cl)cccc4Cl)noc3C3CC3)cc2Cl)cc1
- IC50 [10]: 4.3 µM

Structure (SMILES): CC(Oc1ccc(-c2ccc(OCc3c(-c4c(Cl)cccc4Cl)noc3C3CC3)cc2)cc1)C(=O)O (centres undefined)
- inhibition [20]: 69.4%
- EC50 [21]: 3.51 µM
- IC50 [10]: 3.6 µM
- EC50 [22]: 0.32 µM

Structure (SMILES): CC(C)(Oc1ccc(-c2ccc(OCc3c(-c4c(Cl)cccc4Cl)noc3C3CC3)cc2)cc1)C(=O)O
- IC50 [10]: 5.7 µM

Structure (SMILES): CC(C)(C(=O)O)c1cccc(-c2ccc(OCc3c(-c4c(Cl)cccc4Cl)noc3C3CC3)cc2)c1
- inhibition [20]: 85.8%
- IC50 [10]: 1.5 µM
- EC50 [22]: 0.811 µM

Structure (SMILES): O=C(O)Cc1cccc(N2CCC(OCc3c(-c4c(Cl)cccc4Cl)noc3C3CC3)CC2)c1
- EC50 [22]: > 10 µM

Structure (SMILES): O=C(O)COc1ccc(-c2ccc(OCc3c(-c4c(Cl)cccc4Cl)noc3C3CC3)cc2)cc1
- IC50 [10]: 4.2 µM
- remaining at 1 h [16]: 68.3%
- remaining at 1 h [18]: 56.8%
